Results from patent US20140066362A1, “METHOD FOR TREATING INFECTIONS BY TARGETING MICROBIAL H2S-PRODUCING ENZYMES” (NEW YORK UNIVERSITY, priority 2011, published 2014).
Where two headings read alike, the source gives them in different places.

Test system: E. coli ΔsseA (3MST-deficient) strain
Type: cell-based
[1] = Table 1, relative values of growth inhibition (negative numbers), ΔsseA vs wt E. coli

In the case of `CC(CN1c2ccccc2Sc2ccccc21)N(C)C` (stereo not drawn) [Promethazine], the “ΔsseA inhibition of growth” value [1] is reported as −262.
`O=c1ccc2ccccc2o1` [Coumarin] was tested, and the “ΔsseA inhibition of growth” value [1] was −243.
With `c1ccc(-c2nn(-c3ccccc3)[n+](-c3cccc4ccccc34)n2)cc1` [Tetrazolium violet] the “ΔsseA inhibition of growth” value [1] was −293.
In the case of `OC(CCN1CCCCC1)(c1ccccc1)c1ccccc1` [Pridinol], the “ΔsseA inhibition of growth” value [1] is reported as −206.
In the case of `CCn1cc(C(=O)O)c(=O)c2cc(F)c(N3CCNCC3)cc21` [Norfloxacin], the “ΔsseA inhibition of growth” value [1] is reported as −212.
In the case of `CC[C@H]1OC(=O)C[C@@H](O)[C@H](C)[C@@H](O[C@@H]2O[C@H](C)[C@@H](O[C@H]3C[C@@](C)(O)[C@@H](O)[C@H](C)O3)[C@H](N(C)C)[C@H]2O)[C@@H](CC=O)C[C@@H](C)C(=O)/C=C/C(C)=C/[C@@H]1CO[C@@H]1O[C@H](C)[C@@H](O)[C@@H](OC)[C@H]1OC` [Tylosin], the “ΔsseA inhibition of growth” value [1] is reported as −520.
With `N[C@H](CO)C(=O)O` [D-Serine] the “ΔsseA inhibition of growth” value [1] was −398.
`COc1cc(Cc2cnc(N)nc2N)cc(OC)c1OC` [Trimethoprim] was tested, and the “ΔsseA inhibition of growth” value [1] was −212.
`CC[C@H]1OC(=O)[C@H](C)[C@@H](O[C@H]2C[C@@](C)(OC)[C@@H](O)[C@H](C)O2)[C@H](C)[C@@H](O[C@@H]2O[C@H](C)C[C@H](N(C)C)[C@H]2O)[C@](C)(O)C[C@@H](C)C(=O)[C@H](C)[C@@H](O)[C@]1(C)O` [Erythromycin] was tested, and the “ΔsseA inhibition of growth” value [1] was −468.
In the case of `CN(C)c1ccc(C(=C2C=CC(=[N+](C)C)C=C2)c2ccc(N(C)C)cc2)cc1` [Crystal Violet], the “ΔsseA inhibition of growth” value [1] is reported as −576.
In the case of `[H]/N=C(/N)N[C@H]1[C@H](O)[C@@H](O)[C@H](O[C@@H]2O[C@@H](C)[C@](O)(C=O)[C@H]2O[C@@H]2O[C@@H](CO)[C@H](O)[C@@H](O)[C@@H]2NC)[C@@H](N/C(N)=N\[H])[C@@H]1O` [Streptomycin], the “ΔsseA inhibition of growth” value [1] is reported as −421.
In the case of `Nc1c2ccccc2nc2ccccc12` [9-Aminoacridine], the “ΔsseA inhibition of growth” value [1] is reported as −142.
For `CCN1CCN(C(=O)N[C@@H](C(=O)N[C@@H]2C(=O)N3C(C(=O)O)=C(CSc4nnnn4C)CS[C@H]23)c2ccc(O)cc2)C(=O)C1=O` [Cefoperazone], the “ΔsseA inhibition of growth” value [1] was −159.
With `CC(=O)O[C@H]1C[C@@]2(C)[C@@H](C[C@@H](O)[C@H]3[C@@]4(C)CC[C@@H](O)[C@@H](C)[C@@H]4CC[C@@]32C)/C1=C(\CCC=C(C)C)C(=O)O` [Fusidic acid] the “ΔsseA inhibition of growth” value [1] was −271.
For `O=C(O)C=Cc1ccccc1` [Cinnamic acid], the “ΔsseA inhibition of growth” value [1] was −204.
In the case of `O=C1OC(CN2CCOCC2)CN1/N=C/c1ccc([N+](=O)[O-])o1` (stereo not drawn) [Furaltadone], the “ΔsseA inhibition of growth” value [1] is reported as −162.
For `CCN(CC)C(=S)SSC(=S)N(CC)CC` [Disulfiram], the “ΔsseA inhibition of growth” value [1] was −246.
In the case of `O=C(O)CCCc1ccc(N(CCCl)CCCl)cc1` [Chlorambucil], the “ΔsseA inhibition of growth” value [1] is reported as −177.
For `Cn1cnc([N+](=O)[O-])c1Sc1ncnc2nc[nH]c12` [Azathioprine], the “ΔsseA inhibition of growth” value [1] was −341.
For `N#CC(C#N)=NNc1cccc(Cl)c1` [CCCP], the “ΔsseA inhibition of growth” value [1] was −422.
`CSc1ccc2c(c1)N(CCC1CCCCN1C)c1ccccc1S2` (stereo not drawn) [Thioridazine] was tested, and the “ΔsseA inhibition of growth” value [1] was −313.
For `Oc1c(Cl)c(Cl)c(Cl)c(Cl)c1Cl` [Pentachlorophenol], the “ΔsseA inhibition of growth” value [1] was −287.
With `O=[N+]([O-])c1ccc(-n2nc(-c3ccccc3)n[n+]2-c2ccc(I)cc2)cc1.[Cl-]` [Iodonitro tetrazolium violet] the “ΔsseA inhibition of growth” value [1] was −215.
`Nc1ccc2cc3ccc(N)cc3nc2c1` [Proflavine] was tested, and the “ΔsseA inhibition of growth” value [1] was −93.
For `N#CO` [Sodium cyanate], the “ΔsseA inhibition of growth” value [1] was −238.
`Cn1c(=O)c2c(ncn2C)n(C)c1=O` [Caffeine] was tested, and the “ΔsseA inhibition of growth” value [1] was −173.
For `CO[C@@H]1[C@@H](OC(N)=O)[C@@H](O)[C@H](Oc2ccc3c(O)c(NC(=O)c4ccc(O)c(CC=C(C)C)c4)c(=O)oc3c2C)OC1(C)C` [Novobiocin], the “ΔsseA inhibition of growth” value [1] was −265.
For `N.N.N.N.N.N.N.N.N.N.N.N.N.N.[Cl-].[Cl-].[Cl-].[Cl-].[Cl-].[Cl-].[O-2].[O-2].[Ru+3].[Ru+3].[Ru+4]` [Ruthenium red], the “ΔsseA inhibition of growth” value [1] was −268.
For `Cc1ncc([N+](=O)[O-])n1CC(O)CCl` (stereo not drawn) [Ornidazole], the “ΔsseA inhibition of growth” value [1] was −203.
For `CCn1cc(C(=O)O)c(=O)c2cc3c(cc21)OCO3` [Oxolinic acid], the “ΔsseA inhibition of growth” value [1] was −117.
In the case of `O=S(=O)(F)Cc1ccccc1` [Phenyl-methylsulfonyl-fluoride (PMSF), Phenyl-methylsulfonyl-fluoride], the “ΔsseA inhibition of growth” value [1] is reported as −194.
`Cc1onc(-c2ccccc2Cl)c1C(=O)N[C@@H]1C(=O)N2[C@@H]1SC(C)(C)[C@@H]2C(=O)O` [Cloxacillin] was tested, and the “ΔsseA inhibition of growth” value [1] was −182.
For `CN(C)CCC=C1c2ccccc2CCc2ccccc21` [Amitriptyline], the “ΔsseA inhibition of growth” value [1] was −422.
`Cc1onc(-c2ccccc2)c1C(=O)N[C@@H]1C(=O)N2[C@@H]1SC(C)(C)[C@@H]2C(=O)O` [Oxacillin] was tested, and the “ΔsseA inhibition of growth” value [1] was −346.
In the case of Acriflavine, the “ΔsseA inhibition of growth” value [1] is reported as −295.
With `O=P(O)(O)O` [200 mM Sodium Phosphate pH 7, Sodium Phosphate] the “ΔsseA inhibition of growth” value was −497.
For `CCCCCCCCCCCC[N+](C)(C)CCOc1ccccc1` [Domiphen bromide], the “ΔsseA inhibition of growth” value [1] was −250.
With `CO[C@H]1C[C@H](O[C@H]2[C@H](C)[C@@H](O[C@@H]3O[C@H](C)C[C@H](N(C)C)[C@H]3OC(C)=O)[C@@H](C)C[C@@]3(CO3)C(=O)[C@H](C)[C@@H](OC(C)=O)[C@@H](C)[C@@H](C)OC(=O)[C@@H]2C)O[C@@H](C)[C@@H]1OC(C)=O` [Troleandomycin] the “ΔsseA inhibition of growth” value [1] was −203.
`CC1(C)S[C@@H]2[C@H](NC(=O)Cc3ccccc3)C(=O)N2[C@H]1C(=O)O` [Penicillin G] was tested, and the “ΔsseA inhibition of growth” value [1] was −186.
For `CN1CCN(CCCN2c3ccccc3Sc3ccc(C(F)(F)F)cc32)CC1` [Trifluoperazine], the “ΔsseA inhibition of growth” value [1] was −372.
For `N#CC(C#N)=NNc1ccc(OC(F)(F)F)cc1` [FCCP], the “ΔsseA inhibition of growth” value was −460.
With `CO[C@@]1(NC(=O)C(C(=O)O)c2ccc(O)cc2)C(=O)N2C(C(=O)O)=C(CSc3nnnn3C)CO[C@@H]21` (stereo partly drawn) [Moxalactam] the “ΔsseA inhibition of growth” value [1] was −171.
With Polymyxin B the “ΔsseA inhibition of growth” value [1] was −231.
In the case of `CO[C@H]1C[C@H](O[C@H]2[C@H](C)[C@@H](O[C@@H]3O[C@H](C)C[C@H](N(C)C)[C@H]3O)[C@@H](C)C[C@@]3(CO3)C(=O)[C@H](C)[C@@H](O)[C@@H](C)[C@@H](C)OC(=O)[C@@H]2C)O[C@@H](C)[C@@H]1O` [Oleandomycin], the “ΔsseA inhibition of growth” value [1] is reported as −498.
In the case of `CCOc1ccc2ccccc2c1C(=O)N[C@@H]1C(=O)N2[C@@H]1SC(C)(C)[C@@H]2C(=O)O` [Nafcillin], the “ΔsseA inhibition of growth” value [1] is reported as −227.
In the case of Spiramycin, the “ΔsseA inhibition of growth” value [1] is reported as −235.
`O=[N+]([O-])c1ccc(Cl)c([N+](=O)[O-])c1` [1-Chloro-2,4-dinitrobenzene] was tested, and the “ΔsseA inhibition of growth” value [1] was −221.
`CCCCCCCC(=O)[O-].[Na+]` [Sodium caprylate] was tested, and the “ΔsseA inhibition of growth” value [1] was −346.
For `O=[N+]([O-])c1ccc(O)c([N+](=O)[O-])c1` [2,4-Dinitrophenol], the “ΔsseA inhibition of growth” value [1] was −296.
`CCCCCCCC[N+](C)(CCCCCCCC)CCCCCCCC.[Cl-]` [Methyltrioctylammonium chloride] was tested, and the “ΔsseA inhibition of growth” value [1] was −326.
`CO[C@@H]1[C@@H](O[C@@H]2O[C@H](C)[C@@H](O[C@H]3C[C@@](C)(O)[C@@H](OC(=O)CC(C)C)[C@H](C)O3)[C@H](N(C)C)[C@H]2O)[C@@H](CC=O)C[C@@H](C)[C@@H](O)/C=C/C=C/C[C@@H](C)OC(=O)C[C@H]1OC(C)=O` [Josamycin] was tested, and the “ΔsseA inhibition of growth” value [1] was −294.
In the case of `Nc1ccn([C@@H]2O[C@H](CO)[C@@H](O)[C@@H]2O)c(=O)n1` [Cytosine arabinoside], the “ΔsseA inhibition of growth” value [1] is reported as −281.
`CCS(=O)(=O)CCn1c([N+](=O)[O-])cnc1C` [Tinidazole] was tested, and the “ΔsseA inhibition of growth” value [1] was −223.
Colistin was tested, and the “ΔsseA inhibition of growth” value [1] was −102.
In the case of `CC(C)NCC(O)COc1cccc2ccccc12` (stereo not drawn) [Propranolol], the “ΔsseA inhibition of growth” value [1] is reported as −263.
In the case of `CCCCCCCCCCCC[N+](C)(C)C.[Br-]` [Dodecyltrimethyl ammonium bromide], the “ΔsseA inhibition of growth” value [1] is reported as −225.
`CN(CC[C@H](N)CC(=O)N[C@H]1C=C[C@H](n2ccc(N)nc2=O)O[C@@H]1C(=O)O)C(=N)N` [Blasticidin S] was tested, and the “ΔsseA inhibition of growth” value [1] was −185.
`O=C1C=C(O)C(=O)c2ccccc21` [Lawsone] was tested, and the “ΔsseA inhibition of growth” value [1] was −330.
With `CC1(C)S[C@@H]2[C@H](NC(=O)C(C(=O)O)c3ccccc3)C(=O)N2[C@H]1C(=O)O` (stereo partly drawn) [Carbenicillin] the “ΔsseA inhibition of growth” value [1] was −164.
`CCCCC(CC)CNC(=N)NC(=N)NCCCCCCNC(=N)NC(=N)NCC(CC)CCCC` (stereo not drawn) [Alexidine] was tested, and the “ΔsseA inhibition of growth” value [1] was −216.
With `CC(C(=O)O)c1cccc(C(=O)c2ccccc2)c1` (stereo not drawn) [Ketoprofen] the “ΔsseA inhibition of growth” value [1] was −468.
`NO` [Hydroxylamine] was tested, and the “ΔsseA inhibition of growth” value [1] was −150.
For `CC(Oc1ccccc1)C(=O)N[C@@H]1C(=O)N2[C@@H]1SC(C)(C)[C@@H]2C(=O)O` (stereo partly drawn) [Phenethicillin], the “ΔsseA inhibition of growth” value [1] was −216.
For `CN[C@@H]1[C@@H](O[C@H]2O[C@H](CO)[C@@H](N)[C@H](O)[C@H]2O)OC2C[C@@H](N)[C@@H](O[C@H]3[C@H](O)[C@@H](O)[C@H](N)C[C@@H]3N)OC2[C@@H]1O` (stereo partly drawn) [Apramycin], the “ΔsseA inhibition of growth” value [1] was −179.
With `CN(C)CCCN1c2ccccc2Sc2ccc(Cl)cc21` [Chlorpromazine] the “ΔsseA inhibition of growth” value [1] was −251.
In the case of `O=C1C2CC=CCC2C(=O)N1SC(Cl)(Cl)Cl` (stereo not drawn) [Captan], the “ΔsseA inhibition of growth” value [1] is reported as −357.
For `CCN(CC)CC(=O)Nc1c(C)cccc1C` [Lidocaine], the “ΔsseA inhibition of growth” value [1] was −269.
In the case of `CCn1cc(C(=O)O)c(=O)c2ccc(C)nc21` [Nalidixic acid], the “ΔsseA inhibition of growth” value [1] is reported as −183.
Poly-L-lysine was tested, and the “ΔsseA inhibition of growth” value [1] was −377.
With `NC(CO)C(=O)NNCc1ccc(O)c(O)c1O` (stereo not drawn) [Benserazide] the “ΔsseA inhibition of growth” value [1] was −336.
`NC(=O)c1cc[n+](CC2=C(C(=O)O)N3C(=O)[C@@H](NC(=O)[C@@H](c4ccccc4)S(=O)(=O)[O-])[C@H]3SC2)cc1` [Cefsulodin] was tested, and the “ΔsseA inhibition of growth” value [1] was −201.
For `CO[C@H]1/C=C/O[C@@]2(C)Oc3c(C)c([O-])c4c(O)c(cc(O)c4c3C2=O)NC(=O)/C(C)=C\C=C\[C@H](C)[C@H](O)[C@@H](C)[C@@H](O)[C@@H](C)[C@H](OC(C)=O)[C@@H]1C.[Na+]` [Rifamycin SV], the “ΔsseA inhibition of growth” value [1] was −352.
